The target of one data set is hCA I (Homo sapiens, UniProt P00915). The data set is described as follows: CA inhibition, CO2 hydration method, isozyme I. The format is biochemical. The settings on record: read-out: KI hCA I.
Another data set has as its target hCA IX (Homo sapiens, UniProt Q16790). The data set can be described thus: CA inhibition, CO2 hydration method, isozyme IX (catalytic domain). The format is biochemical.
The target in another data set is hCA II (Homo sapiens, UniProt P00918). The data set is described as follows: CA inhibition, CO2 hydration method, isozyme II. The format is biochemical. The settings on record: for pKi: human cloned isozyme, CO2 hydration method; for hCA II inhibitors, ranking in the series: discussion of Table 1.
The subject of data set [1] is human red cells. The data set is described as follows: Ex vivo penetration through red blood cell membranes. Conditions: for [sulfonamide] in red blood cells, t = 30 min, HPLC / [sulfonamide] in red blood cells, t = 30 min, ES / [sulfonamide] in red blood cells, t = 60 min, HPLC / [sulfonamide] in red blood cells, t = 60 min, ES / [sulfonamide] in red blood cells, t = 48 h, HPLC / [sulfonamide] in red blood cells, t = 48 h, ES: 3 mM sulfonamide in 5 mM Tris buffer pH 7.4; for [sulfonamide] in red blood cells, t = 30 min, HPLC / [sulfonamide] in red blood cells, t = 60 min, HPLC / [sulfonamide] in red blood cells, t = 48 h, HPLC: HPLC method; for [sulfonamide] in red blood cells, t = 30 min, ES / [sulfonamide] in red blood cells, t = 60 min, ES / [sulfonamide] in red blood cells, t = 48 h, ES: electronic spectroscopy.

Data set [2] relates to human red cells.
The target of another data set is hCA XII (Homo sapiens, UniProt O43570). The data set can be described thus: CA inhibition, CO2 hydration method, isozyme XII (catalytic domain). The format is biochemical. The settings on record: Table 2, catalytic domain of human cloned isozyme.
Chain of hCA XII (O43570 30-289 limits assumed): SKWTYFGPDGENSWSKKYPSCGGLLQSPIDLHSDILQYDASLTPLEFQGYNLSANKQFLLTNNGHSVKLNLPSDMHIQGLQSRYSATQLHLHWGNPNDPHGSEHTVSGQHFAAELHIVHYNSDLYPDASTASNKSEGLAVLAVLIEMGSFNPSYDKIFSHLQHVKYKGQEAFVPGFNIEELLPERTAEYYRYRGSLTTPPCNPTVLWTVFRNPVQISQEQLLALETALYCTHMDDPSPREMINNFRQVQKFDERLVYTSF
Where [3] appears, read: Table 1, catalytic domain of human cloned isozyme.
[4] abbreviates: Table 2, catalytic domain of human cloned isozyme.

pKi: −log10 of the molar value. Like-named read-outs stand apart in the source and are kept apart here.

Chain of hCA I (P00915 whole entry, the tested form may be a part): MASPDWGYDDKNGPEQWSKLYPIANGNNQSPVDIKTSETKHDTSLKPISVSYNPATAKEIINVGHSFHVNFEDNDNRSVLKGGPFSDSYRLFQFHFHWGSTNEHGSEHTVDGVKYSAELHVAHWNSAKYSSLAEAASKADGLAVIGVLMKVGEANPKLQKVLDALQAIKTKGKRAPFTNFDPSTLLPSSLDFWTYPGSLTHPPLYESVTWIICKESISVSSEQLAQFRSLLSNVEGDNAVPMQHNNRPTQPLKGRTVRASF

One may read the pKi as −log10 of the Ki, conventionally taken in molar units. In the case of `NS(=O)(=O)c1ccc(NC(=S)Nc2ccc(-c3c4ccc(=O)cc-4oc4cc(O)ccc34)c(C(=O)O)c2)cc1` [5a, (4-Sulfamoylphenyl)thioureido fluorescein], the pKi is 5.82 on hCA I (Table 1, human cloned isozyme); 7.54 at hCA IX (setting [3]); 7.39 on hCA II (Table 1).
For `NS(=O)(=O)c1ccc(CNC(=S)Nc2ccc(-c3c4ccc(=O)cc-4oc4cc(O)ccc34)c(C(=O)O)c2)cc1` [5b, (4-sulfamoylphenylmethyl)thioureido fluorescein], in the data set with human red cells [1], the “[sulfonamide] in red blood cells, t = 30 min, HPLC” value was 0.5 µM; the “[sulfonamide] in red blood cells, t = 30 min, ES” value was found to be 0.8 µM; the “[sulfonamide] in red blood cells, t = 60 min, HPLC” value was 0.8 µM; the “[sulfonamide] in red blood cells, t = 60 min, ES” value is 0.8 µM. Besides, in the data set with human red cells [1], the “[sulfonamide] in red blood cells, t = 48 h, HPLC” value was 10.1 µM and the “[sulfonamide] in red blood cells, t = 48 h, ES” value is 2.5 µM. The “membrane permeability at exposure times of 30-60 min” value in the data set with human red cells [1] (human RBCs, 30-60 min, pH 7.4) was “decreased membrane permeability”. Moreover, in the data set on human red cells [1] (human RBCs, 48 hours, pH 7.4), the “membrane permeability after 48 hours of exposure” value was “slightly more permeant”. At hCA I (Table 1, human cloned isozyme), the pKi is 5.84. Moreover, the pKi at hCA IX (setting [3]) was 7.59.
With `NS(=O)(=O)c1ccc(NNC(=S)Nc2ccc(-c3c4ccc(=O)cc-4oc4cc(O)ccc34)c(C(=O)O)c2)cc1` [5d], the pKi on hCA I (Table 1, human cloned isozyme) was 5.92; on hCA IX (setting [3]) it was 7.60; on hCA II (Table 1) it was 7.40.
In the case of `NS(=O)(=O)c1ccc(NC(=S)Nc2ccc(-c3c4ccc(=O)cc-4oc4cc(O)ccc34)c(C(=O)O)c2)c(F)c1` [5e], the pKi on hCA I (Table 1, human cloned isozyme) was 6.01; on hCA IX (setting [3]), 7.52.
As for `NS(=O)(=O)c1ccc(NC(=S)Nc2ccc(-c3c4ccc(=O)cc-4oc4cc(O)ccc34)c(C(=O)O)c2)c(Cl)c1` [5f], the pKi on hCA I (Table 1, human cloned isozyme) was 6.02; on hCA IX (setting [3]) it was 7.49; at hCA II (Table 1), 7.28.
Taken in the same sequence, the figures for `NS(=O)(=O)c1ccc(NC(=S)Nc2ccc(-c3c4ccc(=O)cc-4oc4cc(O)ccc34)c(C(=O)O)c2)c(Br)c1` [5g] were 5.96, 7.46 and 7.37.
As for `NS(=O)(=O)c1ccc(NC(=S)Nc2ccc(-c3c4ccc(=O)cc-4oc4cc(O)ccc34)c(C(=O)O)c2)c(I)c1` [5h, (2-Iodo-4-sulfamoylphenyl)thioureido fluorescein], the pKi on hCA I (Table 1, human cloned isozyme) is 5.97; on hCA IX (setting [3]), 7.51; at hCA II (Table 1), 7.40.
The corresponding values for `NS(=O)(=O)c1cccc(NC(=S)Nc2ccc(-c3c4ccc(=O)cc-4oc4cc(O)ccc34)c(C(=O)O)c2)c1` [5i, (3-Sulfamoylphenyl)thioureido fluorescein] are 5.85, 7.47 and 7.28.
With `NS(=O)(=O)c1ccc(CNS(=O)(=O)c2ccc(NC(=S)Nc3ccc(-c4c5ccc(=O)cc-5oc5cc(O)ccc45)c(C(=O)O)c3)cc2)cc1` [5j], the pKi at hCA I (Table 1, human cloned isozyme) is 6.20; at hCA IX (setting [3]) it was 7.70; at hCA II (Table 1) it was 7.47. Besides, the “hCA II inhibitors, ranking in the series” value on hCA II was “best hCA II inhibitors in this series”.
As to `NS(=O)(=O)c1nnc(NS(=O)(=O)c2ccc(NC(=S)Nc3ccc(-c4c5ccc(=O)cc-5oc5cc(O)ccc45)c(C(=O)O)c3)cc2)s1` [5k, [4-(5-Sulfamoyl-[1,3,4]thiadiazol-2-ylsulfamoyl)-phenyl]-thioureido fluorescein], the pKi at hCA I (Table 1, human cloned isozyme) is 6.32; on hCA IX (setting [3]) it was 7.80; on hCA II (Table 1), 7.57. On hCA II, the “hCA II inhibitors, ranking in the series” value is “best hCA II inhibitors in this series”.
For `CC(=O)/N=c1/sc(S(N)(=O)=O)nn1C` [MZA, methazolamide, reference compound], in the data set on human red cells [1], the “[sulfonamide] in red blood cells, t = 30 min, HPLC” value was found to be 170 µM; the “[sulfonamide] in red blood cells, t = 30 min, ES” value was determined as 169 µM; the “[sulfonamide] in red blood cells, t = 60 min, HPLC” value turned out to be 168 µM; the “[sulfonamide] in red blood cells, t = 60 min, ES” value was 168 µM. In the data set on human red cells [1], the “[sulfonamide] in red blood cells, t = 48 h, HPLC” value is 167 µM and the “[sulfonamide] in red blood cells, t = 48 h, ES” value was determined as 169 µM. Moreover, the “penetration through red blood cell membranes” value with human red cells [2] is given as “easily penetrate through biological membranes”.
Take `NS(=O)(=O)c1ccc(NC(=O)Nc2ccc(-c3c4ccc(=O)cc-4oc4cc(O)ccc34)c(C(=O)O)c2)cc1` [compound 1, (4-Sulfamoylphenyl)ureido fluorescein]: the pKi at hCA I (Table 2, human cloned isozyme) is 5.77; on hCA IX (setting [4]), 7.68; on hCA XII, 7.96; at hCA II (Table 2) it was 7.44.
Take `NS(=O)(=O)c1cccc(NC(=O)Nc2ccc(-c3c4ccc(=O)cc-4oc4cc(O)ccc34)c(C(=O)O)c2)c1` [compound 2, (3-Sulfamoylphenyl)ureido fluorescein]: the pKi at hCA I (Table 2, human cloned isozyme) was 5.74; on hCA IX (setting [4]), 7.52; on hCA XII it was 8.05; at hCA II (Table 2), 7.37.
For the molecule `NS(=O)(=O)c1ccccc1NC(=O)Nc1ccc(-c2c3ccc(=O)cc-3oc3cc(O)ccc23)c(C(=O)O)c1` [compound 3, (2-Sulfamoylphenyl)ureido fluorescein], the pKi is 5.72 on hCA I (Table 2, human cloned isozyme); 7.34 at hCA IX (setting [4]); 7.74 at hCA XII; 7.12 on hCA II (Table 2).
The corresponding values for `NS(=O)(=O)c1ccc(CNC(=O)Nc2ccc(-c3c4ccc(=O)cc-4oc4cc(O)ccc34)c(C(=O)O)c2)cc1` [compound 4, (4-Sulfamoylphenylmethyl)ureido fluorescein] are 5.81, 7.68, 8.10 and 7.40.
In the case of `NS(=O)(=O)c1ccc(CCNC(=O)Nc2ccc(-c3c4ccc(=O)cc-4oc4cc(O)ccc34)c(C(=O)O)c2)cc1` [compound 5, (4-Sulfamoylphenylethyl)ureido fluorescein], the pKi was 5.87 on hCA I (Table 2, human cloned isozyme); 8.15 at hCA XII; 7.46 on hCA II (Table 2).
Take `NS(=O)(=O)c1ccc(NC(=O)Nc2ccc(-c3c4ccc(=O)cc-4oc4cc(O)ccc34)c(C(=O)O)c2)c(F)c1` [compound 6, (2-Fluoro-4-sulfamoylphenyl)ureido fluorescein]: the pKi was 5.92 at hCA I (Table 2, human cloned isozyme); 7.68 on hCA IX (setting [4]); 8.00 on hCA XII; 7.40 at hCA II (Table 2).
Taken in the same sequence, the figures for `NS(=O)(=O)c1ccc(NC(=O)Nc2ccc(-c3c4ccc(=O)cc-4oc4cc(O)ccc34)c(C(=O)O)c2)c(Cl)c1` [compound 7] were 5.88, 7.66, 7.92 and 7.37.
On to `NS(=O)(=O)c1ccc(NC(=O)Nc2ccc(-c3c4ccc(=O)cc-4oc4cc(O)ccc34)c(C(=O)O)c2)c(I)c1` [compound 9, (2-Iodo-4-sulfamoylphenyl)ureido fluorescein], for which the pKi was 5.87 at hCA I (Table 2, human cloned isozyme); 7.68 on hCA IX (setting [4]); 8.15 on hCA XII; 7.37 on hCA II (Table 2).
The corresponding values for `NS(=O)(=O)c1ccc(CNS(=O)(=O)c2ccc(NC(=O)Nc3ccc(-c4c5ccc(=O)cc-5oc5cc(O)ccc45)c(C(=O)O)c3)cc2)cc1` [compound 10, [4-(4-Sulfamoyl-benzylsulfamoyl)-phenyl]-ureido fluorescein] are 6.28, 8.15, 8.30 and 7.85.
The corresponding values for `NS(=O)(=O)c1nnc(NS(=O)(=O)c2ccc(NC(=O)Nc3ccc(-c4c5ccc(=O)cc-5oc5cc(O)ccc45)c(C(=O)O)c3)cc2)s1` [compound 11, [4-(5-Sulfamoyl-[1,3,4]thiadiazol-2-ylsulfamoyl)-phenyl]-ureido fluorescein] are 6.39, 8.22, 8.52 and 7.89.

Source of the values: patent US20080138291A1, “Sulfonamide Derivatives Having Carbonic Anhydrase Inhibiting Activity and their Use as Therapeutic and Diagnostic Agents” (UNION LIFE SCIENCES LTD., priority 2005, published 2008).
